# Legend:
# [1] = tested on: Arabidopsis drought tolerance; assay: Arabidopsis drought tolerance analysis; type: in vivo; settings: 50 μM spray, water withheld 12 days, then rehydrated
# Procedure: The effects of (-)-Abz-[…] were also determined relative to stomatal apertures. Arabidopsis grown in soil pots underwent moderate drought stress under the optimal growth conditions of 22 °C and 60% relative humidity. Under these growth conditions, the leaf surface temperature of the mock-treated controls was 19.5 °C, which was lower than the surrounding atmospheric temperature because of transpirational water loss (Fig. 6a,b)[30]. […] Finally, we examined the effects of (-)-Abz-[…] on drought tolerance under more practical conditions. Three-week-old Arabidopsis were sprayed with an aqueous solution containing 50 μM (-)-Abz-[…]. Water was not supplied for 12 days, and then the plants were rehydrated. […] We also tested the effects of (-)-Abz-[…] on a monocot crop, maize, to evaluate whether (-)-Abz-[…] affected stomatal movement and enhanced ABA response across plant species. […] Thus, the effects of (-)-Abz-[…] were not restricted to the model plant Arabidopsis. Figure 6 Effects of (-)-Abz-[…] on Arabidopsis drought tolerance. (a,b) Three-week-old plants were treated with 50 μM of (-)-Abz-[…] and incubated overnight at 22 °C with 60% relative humidity. Thermal images of plants were obtained using a thermal imaging camera ([…], Nippon Avionics Co., Ltd.), and the average temperatures on leaf surfaces were determined with NS9200 software (n = 5, error bars represent s.d.). […]
# endogenous ABA level = assay: Endogenous ABA levels in maize; type: in vivo, Maize (cv. Gold rush); settings: maize 2-week-old seedlings, roots dipped in 100 μM overnight, aerial shoot tissues
# rice seedling growth = assay: Rice seedling elongation assay; type: in vivo, Oryza sativa L. cv. Nipponbare; settings: Fig. S5
# Procedure: The effects of (−)-Abz-T compounds were also tested on the early growth of rice seedlings to investigate whether the plant growth-retardant effect derived from UNI declined. […] This was the same trend observed for (−)-Abz-E2B[26]. […] Thus, the growth-retardant effects of (−)-Abz-T compounds may arise from an increase in the endogenous ABA level due to the CYP707A inhibition, although we cannot exclude the possibility that Abz-T compounds may inhibit off-target enzymes other than CYP707A and CYP701A.
# Figure 4 Effects of (−)-Abz-T compounds on rice seedling growth compared with the effects of UNI and (−)-Abz-E2B. Seedlings grown on test media containing indicated concentrations of azole inhibitors for 7 d. Scale bars represent 10 mm. Compound 6 is also referred to as Abz-E3M.
# For the rice seedling elongation assay, seven seeds (Oryza sativa L. cv. Nipponbare) were sterilised with reagent-grade EtOH for 5 min and washed with running tap water. They were then soaked in distilled water and incubated under continuous illumination at 25 °C for 3 d to germinate. The germinated seeds were then soaked in 2 mL of a test medium in a glass tube and grown under continuous illumination at 25 °C. When the seedlings were 7 d old, the length of the second leaf sheath was measured. All of the assays were conducted at least three times.
substance,measurement,setting,value
abscinazole-E3M [(−)-6],Drought tolerance and survival,[1],induced significant drought tolerance and increased the survival rate
same,Endogenous ABA levels,endogenous ABA level,increased the endogenous ABA levels
same,"Effect on rice seedling growth, co-treatment with ABA",rice seedling growth; 10 μM compound + 1 μM ABA,inhibited rice seedling growth
same,"Effect on rice seedling growth, compound alone","rice seedling growth; 10 μM, no ABA",did not

# From article PMC5107945, “Abscinazole-E3M, a practical inhibitor of abscisic acid 8′-hydroxylase for improving drought tolerance” (Scientific Reports, 2016)
